PubChem BioAssay (NCI)
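Following 48 hours of exposure in 96-well plates, responses at five concentrations were used to interpolate endpoints linearly. TGI marks complete inhibition of growth.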

Legend:
Experiment in all cases: NCI tumour cell line growth inhibition, 48 h
A549 NSCLC = test system: A549 NSCLC
CAKI-1 renal = test system: CAKI-1 renal
CCRF-CEM leukemia = test system: CCRF-CEM leukemia
COLO 205 colon = test system: COLO 205 colon
DMS 114 small cell lung = test system: DMS 114 small cell lung
DMS 273 small cell lung = test system: DMS 273 small cell lung
EKVX NSCLC = test system: EKVX NSCLC
HCC-2998 colon = test system: HCC-2998 colon
HCT-15 colon = test system: HCT-15 colon
HL-60(TB) leukemia = test system: HL-60(TB) leukemia
HOP-92 NSCLC = test system: HOP-92 NSCLC
HT29 colon = test system: HT29 colon
IGROV1 ovarian = test system: IGROV1 ovarian
K-562 leukemia = test system: K-562 leukemia
KM12 colon = test system: KM12 colon
LOX IMVI melanoma = test system: LOX IMVI melanoma
LXFL 529 NSCLC = test system: LXFL 529 NSCLC
M14 melanoma = test system: M14 melanoma
M19-MEL melanoma = test system: M19-MEL melanoma
MOLT-4 leukemia = test system: MOLT-4 leukemia
NCI-H226 lung = test system: NCI-H226 lung
NCI-H23 lung = test system: NCI-H23 lung
NCI-H522 lung = test system: NCI-H522 lung
OVCAR-3 ovarian = test system: OVCAR-3 ovarian
OVCAR-4 ovarian = test system: OVCAR-4 ovarian
OVCAR-8 ovarian = test system: OVCAR-8 ovarian
RPMI-8226 leukemia = test system: RPMI-8226 leukemia
SF-539 CNS = test system: SF-539 CNS
SK-MEL-28 melanoma = test system: SK-MEL-28 melanoma
SK-MEL-5 melanoma = test system: SK-MEL-5 melanoma
SK-OV-3 ovarian = test system: SK-OV-3 ovarian
SN12C renal = test system: SN12C renal
SNB-75 CNS = test system: SNB-75 CNS
SNB-78 CNS = test system: SNB-78 CNS
SW-620 colon = test system: SW-620 colon
TK-10 renal = test system: TK-10 renal
UACC-257 melanoma = test system: UACC-257 melanoma
UACC-62 melanoma = test system: UACC-62 melanoma
XF 498 CNS = test system: XF 498 CNS
786-0 renal = test system: 786-0 renal
A498 renal = test system: A498 renal
ACHN renal = test system: ACHN renal
HCT-116 colon = test system: HCT-116 colon
HOP-62 NSCLC = test system: HOP-62 NSCLC
MALME-3M melanoma = test system: MALME-3M melanoma
NCI-H460 lung = test system: NCI-H460 lung
OVCAR-5 ovarian = test system: OVCAR-5 ovarian
RXF 393 renal = test system: RXF 393 renal
SF-268 CNS = test system: SF-268 CNS
SF-295 CNS = test system: SF-295 CNS
SK-MEL-2 melanoma = test system: SK-MEL-2 melanoma
SNB-19 CNS = test system: SNB-19 CNS
U251 CNS = test system: U251 CNS
UO-31 renal = test system: UO-31 renal

Measured: TGI

CCN(CC)CSc1nc2ccccc2s1
> 100 µM: A549 NSCLC | CAKI-1 renal | CCRF-CEM leukemia | COLO 205 colon | DMS 114 small cell lung | DMS 273 small cell lung | EKVX NSCLC | HCC-2998 colon | HCT-15 colon | HL-60(TB) leukemia | HOP-92 NSCLC | HT29 colon | IGROV1 ovarian | K-562 leukemia | KM12 colon | LOX IMVI melanoma | LXFL 529 NSCLC | M14 melanoma | M19-MEL melanoma | MOLT-4 leukemia | NCI-H226 lung | NCI-H23 lung | NCI-H522 lung | OVCAR-3 ovarian | OVCAR-4 ovarian | OVCAR-8 ovarian | RPMI-8226 leukemia | SF-539 CNS | SK-MEL-28 melanoma | SK-MEL-5 melanoma | SK-OV-3 ovarian | SN12C renal | SNB-75 CNS | SNB-78 CNS | SW-620 colon | TK-10 renal | UACC-257 melanoma | UACC-62 melanoma | XF 498 CNS

CCN(CC)c1ccc(C(=O)c2ccccc2C(=O)O)c(O)c1
> 100 µM: 786-0 renal | A498 renal | A549 NSCLC | ACHN renal | CAKI-1 renal | CCRF-CEM leukemia | COLO 205 colon | DMS 114 small cell lung | DMS 273 small cell lung | EKVX NSCLC | HCT-116 colon | HCT-15 colon | HL-60(TB) leukemia | HOP-62 NSCLC | HOP-92 NSCLC | HT29 colon | IGROV1 ovarian | K-562 leukemia | KM12 colon | LOX IMVI melanoma | LXFL 529 NSCLC | M14 melanoma | M19-MEL melanoma | MALME-3M melanoma | MOLT-4 leukemia | NCI-H23 lung | NCI-H460 lung | NCI-H522 lung | OVCAR-3 ovarian | OVCAR-4 ovarian | OVCAR-5 ovarian | OVCAR-8 ovarian | RPMI-8226 leukemia | RXF 393 renal | SF-268 CNS | SF-295 CNS | SF-539 CNS | SK-MEL-2 melanoma | SK-MEL-28 melanoma | SK-MEL-5 melanoma | SK-OV-3 ovarian | SN12C renal | SNB-19 CNS | SNB-75 CNS | SNB-78 CNS | SW-620 colon | TK-10 renal | U251 CNS | UACC-257 melanoma | UACC-62 melanoma | UO-31 renal | XF 498 CNS
